Key:
Test in all cases: ChaCha beta-arrestin/TEV-release GFP reporter in HEK293T cells
Assay type in all cases: cell-based
[1] = target: T1, kappa opioid receptor DREADD (KORD) (Homo sapiens, UniProt P41145, D138N)
T1 construct: gene OPRK1; KORD-V2-TEVp; with ARRB2 (ARRB2-TCS-dCas9-VPR)

LPAR1 = target: T2, LPAR1 (Homo sapiens, UniProt Q92633)
T2 construct: LPAR1-V2-TEVp; with ARRB2 (ARRB2-TCS-dCas9-VPR)

TRHR = target: T3, TRHR (Homo sapiens, UniProt P34981)
T3 construct: TRHR-V2-TEVp; with ARRB2 (ARRB2-TCS-dCas9-VPR)
T3 sequence (P34981 whole entry): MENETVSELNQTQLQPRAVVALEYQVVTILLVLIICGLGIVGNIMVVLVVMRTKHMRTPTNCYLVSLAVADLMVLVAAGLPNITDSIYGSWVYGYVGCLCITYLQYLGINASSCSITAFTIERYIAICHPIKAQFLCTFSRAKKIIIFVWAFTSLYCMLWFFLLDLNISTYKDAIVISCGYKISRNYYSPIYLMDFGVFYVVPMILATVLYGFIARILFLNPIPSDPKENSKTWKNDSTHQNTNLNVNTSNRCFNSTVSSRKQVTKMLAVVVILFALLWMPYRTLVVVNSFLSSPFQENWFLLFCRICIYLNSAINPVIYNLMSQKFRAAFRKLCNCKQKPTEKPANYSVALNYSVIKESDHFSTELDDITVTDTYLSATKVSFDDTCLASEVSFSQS
T3 sequence (P32121 whole entry partner): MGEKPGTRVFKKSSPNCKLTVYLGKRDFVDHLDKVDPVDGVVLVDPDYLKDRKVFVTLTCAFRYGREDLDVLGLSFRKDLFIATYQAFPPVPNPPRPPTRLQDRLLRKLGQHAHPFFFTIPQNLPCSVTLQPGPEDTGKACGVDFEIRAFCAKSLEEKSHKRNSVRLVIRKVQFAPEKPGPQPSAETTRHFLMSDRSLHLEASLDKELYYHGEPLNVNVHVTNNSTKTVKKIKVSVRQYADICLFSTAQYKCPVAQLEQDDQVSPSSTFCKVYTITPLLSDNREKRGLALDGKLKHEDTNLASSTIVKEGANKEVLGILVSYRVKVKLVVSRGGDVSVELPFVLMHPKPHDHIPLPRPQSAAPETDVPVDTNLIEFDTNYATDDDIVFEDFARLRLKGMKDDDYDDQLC

T1 sequence (P41145 whole entry D138N): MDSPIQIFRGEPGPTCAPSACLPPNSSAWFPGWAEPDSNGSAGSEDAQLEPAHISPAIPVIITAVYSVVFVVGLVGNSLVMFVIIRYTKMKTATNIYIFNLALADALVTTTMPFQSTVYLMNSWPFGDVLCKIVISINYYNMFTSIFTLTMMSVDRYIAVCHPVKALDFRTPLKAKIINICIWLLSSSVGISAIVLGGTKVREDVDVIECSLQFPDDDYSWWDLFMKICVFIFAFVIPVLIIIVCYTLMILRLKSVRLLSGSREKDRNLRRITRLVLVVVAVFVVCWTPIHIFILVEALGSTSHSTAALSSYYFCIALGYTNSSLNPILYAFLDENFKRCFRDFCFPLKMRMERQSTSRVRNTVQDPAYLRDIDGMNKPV
T1 sequence (P32121 whole entry, further chain): as the sequence (P32121 whole entry partner) above
T2 sequence (Q92633 whole entry): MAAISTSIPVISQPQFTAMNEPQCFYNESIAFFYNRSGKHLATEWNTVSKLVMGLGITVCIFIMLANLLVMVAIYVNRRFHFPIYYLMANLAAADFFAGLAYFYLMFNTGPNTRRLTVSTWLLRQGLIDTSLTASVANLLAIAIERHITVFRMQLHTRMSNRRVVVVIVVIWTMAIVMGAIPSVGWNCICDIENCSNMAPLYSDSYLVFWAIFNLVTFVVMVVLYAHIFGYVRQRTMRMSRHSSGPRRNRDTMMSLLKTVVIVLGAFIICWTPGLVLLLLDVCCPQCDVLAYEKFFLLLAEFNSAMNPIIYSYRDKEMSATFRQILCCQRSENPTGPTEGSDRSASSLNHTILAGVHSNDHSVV
T2 sequence (P32121 whole entry partner): as the sequence (P32121 whole entry partner) above

COC(=O)[C@@H]1C[C@H](O)C(=O)[C@H]2[C@@]1(C)CC[C@H]1C(=O)O[C@H](c3ccoc3)C[C@]21C [Salvinorin B]
ChaCha beta-arrestin/TEV-release GFP reporter in HEK293T cells [1]: another evolved GPCR, the kappa opioid receptor DREADD (KORD), which senses Salvinorin B

CCCCCCCC/C=C\CCCCCCCC(=O)OC[C@@H](O)COP(=O)(O)O [lysophosphatidic acid]
ChaCha beta-arrestin/TEV-release GFP reporter in HEK293T cells (LPAR1): LPAR1, which senses the fatty acid lysophosphatidic acid

NC(=O)[C@@H]1CCCN1C(=O)[C@H](Cc1cnc[nH]1)NC(=O)[C@@H]1CCC(=O)N1 [thyrotropin-releasing hormone]
ChaCha beta-arrestin/TEV-release GFP reporter in HEK293T cells (TRHR): TRHR, which senses thyrotropin-releasing hormone

— publication PMC5738360, “Engineering cell sensing and responses using a GPCR-coupled CRISPR-Cas system” (Nature Communications, 2017)
